Data reported in patent US20070117864A1, “Composition for preventing and treating hepatoma” (Tokyo University of Agr. & Tech. TLO Co., Ltd., priority 2003, published 2007).
Marks after values point to notes of the source that are not given here.

Legend:
AH109A cells [1] = assay: solid tumor growth and metastasis in hepatoma-bearing rats fed ENL-supplemented diets; type: in vivo, rat; conditions: for Total number of metastasis/group / Hepatoma weight: 21 days; for Hepatoma weight: mean ± SEM of 11 rats
Experimental: Male Donryu rats of four weeks old were purchased from NRC Haruna, Gumma, Japan, and were preliminarily fed for 6 days in quintuple cages in a room with a controlled environment with light period of 8:00 to 20:00, room temperature of 22±1° C., and relative humidity of 60±5%. For the first 3 days, the animals were fed ad libitum with a stock pellet diet (CE-2; CLEA Japan, Tokyo), and for the next 3 days, they were fed a basal diet containing 20% milk casein (20C) (Table 1) ad libitum together with tap water in a glass container. Following the completion of this preparatory raising, the rats were divided into three groups (11 animals per group) with equal average body weights of the respective groups were equal, and 1.0×10^7 of AH109A cells suspended in PBS (−) were transplanted in the back of all the rats. From the time immediately after transplantation, in the respective experimental groups, the animals were fed the experimental diets shown in Table 2. During the experimental period, the body weight, food intake and solid tumor size (sum of length, width and height) were measured everyday. On the day that the animals were killed, animals were deprived of experimental diets at 9:00, but freely given water until they were killed 4 hours later. Blood was collected from carotid, and the liver and solid tumors were excised. The collected blood was allowed to stand for approximately 2 hours at room temperature, and then centrifuged for 10 minutes at 3000 rpm (1750×g), 4° C., to obtain serum. This blood serum was frozen and stored at −20° C. The livers and solid tumors were washed with physiological saline, blotted on filter paper, and weighed. Furthermore, feces from the 19th to 21st days after transplantation were collected, and these feces were frozen and stored at −20° C. for the measurement of the amounts of steroids excreted from the body. The length, width and height of the solid tumors were measured, and the sums of these values were used as an index of solid tumor size.

[2] = serum lipid peroxide levels (TBARS) in hepatoma-bearing rats; type: in vivo, rat; conditions: mean ± SEM of 11 rats
Experimental: Male Donryu rats of four weeks old were purchased from NRC Haruna, Gumma, Japan, and were preliminarily fed for 6 days in quintuple cages in a room with a controlled environment with light period of 8:00 to 20:00, room temperature of 22±1° C., and relative humidity of 60±5%. For the first 3 days, the animals were fed ad libitum with a stock pellet diet (CE-2; CLEA Japan, Tokyo), and for the next 3 days, they were fed a basal diet containing 20% milk casein (20C) (Table 1) ad libitum together with tap water in a glass container. Following the completion of this preparatory raising, the rats were divided into three groups (11 animals per group) with equal average body weights of the respective groups were equal, and 1.0×10^7 of AH109A cells suspended in PBS (−) were transplanted in the back of all the rats. From the time immediately after transplantation, in the respective experimental groups, the animals were fed the experimental diets shown in Table 2. During the experimental period, the body weight, food intake and solid tumor size (sum of length, width and height) were measured everyday. […] LPO levels were determined by measuring thiobarbituric acid-reactive substances (TBARS) by the Yagi fluorescence method using a lipid peroxide test Wako (Wako Pure Chemical Industries).

AH109A cells [3] = assay: proliferative activity of hepatoma cells by [3H]thymidine incorporation; type: cell-based, rat
Experimental: The proliferative activity of the AH109A cells was evaluated by measuring the incorporation of [^3H]thymidine (20 Ci/mmol, New England Nuclear, Boston, USA) into acid-insoluble fraction, namely, DNA [Yagasaki K., Tanabe T., Ishihara K., and Funabiki R., (1992) Modulation of the proliferation of cultured hepatoma cells by urea cycle-related amino acids. In: Murakami, H., Shirahata S., and Tachibanana H., (ed.) Animal Cell Technology: Basic and Applied Aspects. Vol. 4 (pp. 257-263). Kluwer Academic Publisher, Dordrecht/Boston/London]. […]
The plate was washed twice with 400 μl of 10% TCA; the wash solution was then recovered in Maruemu tubes, and was again subjected to centrifugally separation for 5 minutes at 3000 rpm (1500×g), 4° C., and then solubilized in 0.2N NaOH in 0.1% SDS. was added to the 48-well plate and the cells remaining in the Maruemu tubes at the respective rates of 150 μl and 50 μl, and these were allowed to stand for 30 minutes inside an incubator at 37° C., to dissolve the cells completely. […] 5 ml of an NT scintillator (700 ml of toluene, 300 ml of nonion, 4 g of DPO) was added, and 150 μl of 1N HCl was further added thereto, and it was confirmed that the liquid of the preparation thoroughly shaken had become transparent; then, the radioactivity of the preparation was measured with a liquid scintillation spectrophotometer (LS6500; Beckman, Fullerton, Calif., USA). […]

Structure (SMILES): O=C1OCC(Cc2cccc(O)c2)C1Cc1cccc(O)c1 (centres unmarked) [Enterolactone, enterolactone]
- solid tumor sizes (sum of length, width and height) (AH109A cells [1]; 100 ppm ENL diet, 7th, 8th and 18th to 21 days after transplantation, versus control diet): significant suppression
- metastasis over 21 days following transplantation (AH109A cells [1]; ENL diet groups (10 and 100 ppm)): no metastasis was observed
- solid tumor weight (AH109A cells [1]; both ENL ingestion groups versus control): significant decrease
- Total number of metastasis/group (AH109A cells [1]; diet 10 ppm): 0
- Hepatoma weight (AH109A cells [1]; diet 10 ppm): 3.4 ± 1^b g/rat
- Total number of metastasis/group (AH109A cells [1]; diet 100 ppm): 0
- Hepatoma weight (AH109A cells [1]; diet 100 ppm): 1.1 ± 0.2^b g/rat
- Serum TBARS ([2]; diet 10 ppm): 7.31 ± 0.37 nmol/mL
- Serum TBARS ([2]; diet 100 ppm): 6.87 ± 0.51 nmol/mL
- proliferation of AH109A cells (AH109A cells [3]; ENL 50 μM, in vitro): almost completely suppressed
- inhibitory effect on proliferation, AH109A cells compared with normal M-cells (AH109A cells [3]; in vitro comparison): stronger inhibitory effect against AH109A cells than normal M-cells
